{"source": "patent US12351597B2", "about": "“Substituted biphenyl or phenylheteroaryl-mannosides as antagonists of FimH” (GLAXOSMITHKLINE INTELLECTUAL PROPERTY DEVELOPMENT LIMITED, priority 2019, dated 2025)", "key": {"FimH": {"biological_target": "T1, FimH (Escherichia coli, UniProt Q1R2J4)", "T1 construct": "endogenous in cells; host or cells: E. coli UTI89 whole bacteria (piliated), with guinea pig red blood cells", "experiment": "Hemagglutination inhibition assay (HAI)", "assay_type": "cell-based", "details": "HAI titer / EC>90: concentration reducing bacterial agglutination of guinea pig red blood cells by >90%; UTI89 bacteria", "from_the_text": "“HAI titer or EC>90” is that concentration of the FimH inhibitor/antagonist which reduces the bacterial agglutination of guinea pig red blood cells by greater than 90%.\nThe activities of the Examples 1-40 compounds above as FimH antagonists/inhibitors were obtained by the following assay(s), and values are provided in Table 1. The values not provided mean that the activities have not yet been tested.\nHemagglutination Inhibition Assay (HAI)\nThe hemagglutination inhibition (HAI) assay was performed with UTI89 bacteria and guinea pig red blood cells, as previously described (S. J. Hultgren, W. R. Schwan, A. J. Schaeffer, J. L. Duncan Infect. Immun. 1986, 54, 613-620 and Jarvis, C.; Han, Z.; Kalas, V.; Klein, R.; Pinkner, J. S.; Ford, B.; Binkley, J.; Cusumano, C. K.; Cusumano, Z.; Mydock-McGrane, L.; Hultgren, S. J.; Janetka, J. W., ChemMedChem 2016, 11, 367-373). Values not listed were not tested."}, "[1]": {"experiment": "Rat pharmacokinetics (IV infusion 1 mg/kg, then PO 5 mg/kg; blood and urine)", "assay_type": "in vivo, Male Wistar Han rats", "details": "for PK DNAUC h * uM (DNAUC oral, dose normalized): PO 5 mg/kg, blood, AUC divided by dose in mg/kg; for bioavailability: male, Wistar Han, whole blood, oral bioavailability from dose-normalized AUC, PO 5 mg/kg vs IV infusion 1 mg/kg; for Ue % (Ue % po): percentage of oral dose eliminated unchanged in urine, or estimate from IV urinary % times oral bioavailability", "from_the_text": "General Assays for Obtaining AUC Oral h*μm, % F, and Ue % PO Values\nMale Wistar Han rats were purchased from Vital River Laboratory Animal Technology Co. Ltd (Beijing, China). The animals were approx. 6-8 weeks old with body weights of 200-300 g on the dosing date. The animals were housed in a 12-hour light/12-hour dark cycle environment and had free access to food and water. All animals were fed prior to dosing. Studies were approved by the Pharmaron Institutional Animal Care and Use Committee (IACUC).\nTest article was administered as an intravenous infusion for 1 hour (1 mg/kg) at 5 mL/kg/h. After 48 h, animals received a single oral dose (5 mg/kg, free form) at a dose volume of 10 mL/kg, respectively. Blood samples were collected at various time points after IV infusion and PO administrations. Urine samples were collected at various time points after IV infusion and PO administrations (for some compounds).\nTest article was dissolved in DMSO with vortexing and sonification to obtain a stock solution. An aliquot of the stock solution was mixed with 10% HP-β-CD in saline with vortexing to obtain a solution with concentration at 0.2 mg/mL of test article.\nTest article was added into 1% Methyl Cellulose with vortexing and sonication to obtain a homogeneous suspension with concentration at 0.5 mg/mL of test article.\nFor IV infusion (1 mg/kg) administration, blood samples were collected from each animal at 0, 0.25, 0.5, 0.75, 1, 1.08, 1.25, 1.5, 1.75, 2, 3, 5, 8, 12, 24 hour post-dose.\nFor PO (5 mg/kg) administration, blood samples were collected from each animal at 0, 0.25, 0.5, 1, 1.5, 2, 3, 4, 6, 8, 12, 24 hour post-dose.\nBlood samples (50 μL) were collected from each animal via jugular vein. These blood samples were placed into tubes containing K2EDTA. Whole blood was mixed with same volume of water and inverted several times. The blood samples were stored at −75±15° C. until analysis.\nFor IV infusion (1 mg/kg) administration, urine samples were collected from each animal at 0-4, 4-8, 8-12, 12-24 hour post-dose.\nFor PO (5 mg/kg) administration, urine samples were collected (for some compounds) from each animal at 0-4, 4-8, 8-12, 12-24 hour post-dose.\n55 μL of standards, 55 μL of QC samples or 55 μL of unknown samples (50 μL of blood or urine with 5 μL 50% acetonitrile) were mixed to 200 μL of acetonitrile containing IS (dexamethasone) to precipitate proteins. Then the samples were vortexed for 30 sec. After centrifugation at 4° C., 4700 rpm for 30 min, and 5 μL of the supernatant was injected into the LC-MS/MS system for quantitative analysis.\nTest article blood and urine concentrations for each animal following IV infusion at 1 mg/kg and PO at 5 mg/kg were used to calculate pharmacokinetic parameters by employing a non-compartmental analysis (Phoenix™ WinNonlin® 7.0). The linear trapezoidal algorithm was used for AUC calculation. • AUC oral h*uM: Area under the curve (AUC) of drug concentration in blood vs. time (units: h*μM) following oral administration • DNAUC Dose normalized area under the curve is calculate by divided the area under the curve divided by the dose in the mg/kg • % F: Oral bioavailability (%) derived from the ratio of dose-normalized AUC following PO and IV administration • Ue % PO: Percentage of oral dose eliminated unchanged in urine or an estimate of that parameter generated from using the percentage of the iv dose eliminated in the urine times the oral bioavailability Production Methods: […]"}}}
{"smiles": "Cc1cc(-c2cnc(C(F)(F)F)cn2)ccc1O[C@H]1O[C@H](CO)[C@@H](O)[C@H](O)[C@@H]1O", "note": "[Example 1, (2R,3S,4S,5S,6R)-2-(Hydroxymethyl)-6-(2-methyl-4-(5-(trifluoromethyl)pyrazin-2-yl)phenoxy)tetrahydro-2H-pyran-3,4,5-triol]", "values": [{"measurement": "HAI nM", "setting": "FimH", "result": "“++++” (<50)"}, {"measurement": "PK DNAUC h * uM (DNAUC oral, dose normalized)", "setting": "[1]", "result": "“+++” (>0.2 h · μM)"}, {"measurement": "bioavailability", "setting": "[1]", "result": "> 30", "unit": "%"}, {"measurement": "Ue % (Ue % po)", "setting": "[1]", "result": "“+++” (>5%)"}]}
{"smiles": "OC[C@H]1O[C@H](Oc2ccc(-c3cnc(C(F)(F)F)cn3)cc2C(F)(F)F)[C@@H](O)[C@@H](O)[C@@H]1O", "note": "[Example 3, (2R,3S,4S,5S,6R)-2-(Hydroxymethyl)-6-(2-(trifluoromethyl)-4-(5-(trifluoromethyl)pyrazin-2-yl)phenoxy)tetrahydro-2H-pyran-3,4,5-triol]", "values": [{"measurement": "HAI nM", "setting": "FimH", "result": "“+++” (50-200)"}, {"measurement": "PK DNAUC h * uM (DNAUC oral, dose normalized)", "setting": "[1]", "result": "“++” (0.1 ≤ × ≤ 0.2h · μM)"}, {"measurement": "bioavailability", "setting": "[1]", "result": "10 to 30", "unit": "%"}]}
{"smiles": "Cc1cc(-c2cc(F)cc(C#N)c2)ccc1O[C@H]1O[C@H](CO)[C@@H](O)[C@H](O)[C@@H]1O", "note": "[Example 4, 5-Fluoro-3′-methyl-4′-(((2R,3S,4S,5S,6R)-3,4,5-trihydroxy-6-(hydroxymethyl)tetrahydro-2H-pyran-2-yl)oxy)-[1,1′-biphenyl]-3-carbonitrile]", "values": [{"measurement": "HAI nM", "setting": "FimH", "result": "“+++” (50-200)"}, {"measurement": "PK DNAUC h * uM (DNAUC oral, dose normalized)", "setting": "[1]", "result": "“+++” (>0.2 h · μM)"}, {"measurement": "bioavailability", "setting": "[1]", "result": "> 30", "unit": "%"}]}
{"smiles": "Cc1cc(-c2cc(C(F)(F)F)ccn2)ccc1O[C@H]1O[C@H](CO)[C@@H](O)[C@H](O)[C@@H]1O", "note": "[Example 5, (2R,3S,4S,5S,6R)-2-(hydroxymethyl)-6-(2-methyl-4-(4-(trifluoromethyl)pyridin-2-yl)phenoxy)tetrahydro-2H-pyran-3,4,5-triol]", "values": [{"measurement": "HAI nM", "setting": "FimH", "result": "“+++” (50-200)"}, {"measurement": "PK DNAUC h * uM (DNAUC oral, dose normalized)", "setting": "[1]", "result": "“+++” (>0.2 h · μM)"}, {"measurement": "bioavailability", "setting": "[1]", "result": "> 30", "unit": "%"}]}
{"smiles": "N#Cc1cc(F)cc(-c2cc(F)c(O[C@H]3O[C@H](CO)[C@@H](O)[C@H](O)[C@@H]3O)c(C(F)(F)F)c2)c1", "note": "[Example 6]", "values": [{"measurement": "HAI nM", "setting": "FimH", "result": "“++++” (<50)"}, {"measurement": "PK DNAUC h * uM (DNAUC oral, dose normalized)", "setting": "[1]", "result": "“+” (<01 h · μM)"}]}
{"smiles": "Cc1cc(-c2cnc(N3CCCC3)cn2)ccc1O[C@H]1O[C@H](CO)[C@@H](O)[C@H](O)[C@@H]1O", "note": "[Example 7]", "values": [{"measurement": "HAI nM", "setting": "FimH", "result": "“++++” (<50)"}, {"measurement": "PK DNAUC h * uM (DNAUC oral, dose normalized)", "setting": "[1]", "result": "“+” (<01 h · μM)"}]}
{"smiles": "Cc1cc(-c2cnc(C3CC3)cn2)ccc1O[C@H]1O[C@H](CO)[C@@H](O)[C@H](O)[C@@H]1O", "note": "[Example 12]", "values": [{"measurement": "HAI nM", "setting": "FimH", "result": "“++++” (<50)"}, {"measurement": "PK DNAUC h * uM (DNAUC oral, dose normalized)", "setting": "[1]", "result": "“++” (0.1 ≤ × ≤ 0.2h · μM)"}, {"measurement": "bioavailability", "setting": "[1]", "result": "> 30", "unit": "%"}, {"measurement": "Ue % (Ue % po)", "setting": "[1]", "result": "“++” (0.5 ≤ × ≤ 5%)"}]}
{"smiles": "Cc1cc(-c2ccnc(C(F)(F)F)n2)ccc1O[C@H]1O[C@H](CO)[C@@H](O)[C@H](O)[C@@H]1O", "note": "[Example 14]", "values": [{"measurement": "HAI nM", "setting": "FimH", "result": "“+++” (50-200)"}, {"measurement": "PK DNAUC h * uM (DNAUC oral, dose normalized)", "setting": "[1]", "result": "“+” (<01 h · μM)"}]}
{"smiles": "Cc1cc(-c2cnc(C(F)(F)F)nc2)ccc1O[C@H]1O[C@H](CO)[C@@H](O)[C@H](O)[C@@H]1O", "note": "[Example 16]", "values": [{"measurement": "HAI nM", "setting": "FimH", "result": "“++++” (<50)"}, {"measurement": "PK DNAUC h * uM (DNAUC oral, dose normalized)", "setting": "[1]", "result": "“++” (0.1 ≤ × ≤ 0.2h · μM)"}]}
{"smiles": "OC[C@H]1O[C@H](Oc2c(F)cc(-c3ccc(C(F)(F)F)cn3)cc2C(F)(F)F)[C@@H](O)[C@@H](O)[C@@H]1O", "note": "[Example 28]", "values": [{"measurement": "HAI nM", "setting": "FimH", "result": "“++++” (<50)"}, {"measurement": "PK DNAUC h * uM (DNAUC oral, dose normalized)", "setting": "[1]", "result": "“+++” (>0.2 h · μM)"}, {"measurement": "bioavailability", "setting": "[1]", "result": "10 to 30", "unit": "%"}]}
{"smiles": "OC[C@H]1O[C@H](Oc2c(F)cc(-c3ccc(C(F)(F)F)nc3)cc2C(F)(F)F)[C@@H](O)[C@@H](O)[C@@H]1O", "note": "[Example 35]", "values": [{"measurement": "PK DNAUC h * uM (DNAUC oral, dose normalized)", "setting": "[1]", "result": "“+” (<01 h · μM)"}]}
{"smiles": "Cc1cc(-c2cncc(C#N)c2)ccc1O[C@H]1O[C@H](CO)[C@@H](O)[C@H](O)[C@@H]1O", "note": "[Example 37]", "values": [{"measurement": "HAI nM", "setting": "FimH", "result": "“++++” (<50)"}, {"measurement": "PK DNAUC h * uM (DNAUC oral, dose normalized)", "setting": "[1]", "result": "“+” (<01 h · μM)"}]}
{"smiles": "N#Cc1cncc(-c2cc(F)c(O[C@H]3O[C@H](CO)[C@@H](O)[C@H](O)[C@@H]3O)c(C(F)(F)F)c2)c1", "note": "[Example 38]", "values": [{"measurement": "HAI nM", "setting": "FimH", "result": "“++++” (<50)"}, {"measurement": "PK DNAUC h * uM (DNAUC oral, dose normalized)", "setting": "[1]", "result": "“+” (<01 h · μM)"}]}
{"smiles": "OC[C@H]1O[C@H](Oc2ccc(-c3cccc(C(F)(F)F)n3)cc2C(F)(F)F)[C@@H](O)[C@@H](O)[C@@H]1O", "note": "[Example 39]", "values": [{"measurement": "HAI nM", "setting": "FimH", "result": "“+++” (50-200)"}]}
{"smiles": "Cc1cc(-c2cccc(C(F)(F)F)n2)ccc1O[C@H]1O[C@H](CO)[C@@H](O)[C@H](O)[C@@H]1O", "note": "[Example 40]", "values": [{"measurement": "HAI nM", "setting": "FimH", "result": "“+++” (50-200)"}]}
